Patent US20170313669A1, “LACTONE COMPOUNDS AND METHODS OF MAKING AND USING SAME” (THE SCRIPPS RESEARCH INSTITUTE, priority 2015, published 2017)

How the values were obtained:
ABHD16A (mouse) = molecular target: T1, ABHD16A (mouse) (Mus musculus, UniProt Q9Z1Q2); experiment: Lipid substrate hydrolysis assay, murine ABHD16A-transfected HEK293T membrane proteome; assay type: biochemical; conditions: substrate 100 μM
T1 construct: full-length cDNA of human ABHD16A (Open Biosystems Catalog # MHS6278-202758315) or murine ABHD16A (Open Biosystems Catalog # MMM1013-202760516) in pCMV-SPORT6 vector; host or cells: HEK293T
Protocol: (§1) All the lipid species used in the lipid substrate hydrolysis assays were purchased from Avanti Polar Lipids Inc unless mentioned otherwise. In general, 20 μg of proteome was incubated with 100 μM lipid in a reaction volume of 100 μL in PBS at 30° C. with constant shaking. After 30 minutes the reaction was quenched with 350 μL of 2:1 (vol/vol) CHCl3: MeOH, doped with 0.5 nmol internal standard (17:1 FFA). The mixture was vortexed, and the centrifuged at 2800×g for 5 minutes to separate the aqueous (top) and organic (bottom) phase. The organic phase was collected. 5 μL of formic acid was added to the aqueous phase, and extracted again using 350 μL of 2:1 (vol/vol) CHCl3: MeOH using above mentioned protocol. The organic phase was collected, and pooled with the organic phase from the first extraction. […] All the data was collected and analyzed using the Agilent MassHunter Workstation software version B.04 using the Data Acquisition and Quantitative Analysis programs respectively. Measuring the area under the peak, and normalizing it to the internal standard quantified the product release for the lipid substrate hydrolysis assays. […] Some products from the substrate hydrolysis assays were detected in positive ion mode for qualitative identification. […]

[1] = Lipid substrate hydrolysis assay, mock-transfected HEK293T membrane proteome; assay type: biochemical; conditions: substrate 100 μM
Protocol: as §1

T1 sequence (Q9Z1Q2 whole entry): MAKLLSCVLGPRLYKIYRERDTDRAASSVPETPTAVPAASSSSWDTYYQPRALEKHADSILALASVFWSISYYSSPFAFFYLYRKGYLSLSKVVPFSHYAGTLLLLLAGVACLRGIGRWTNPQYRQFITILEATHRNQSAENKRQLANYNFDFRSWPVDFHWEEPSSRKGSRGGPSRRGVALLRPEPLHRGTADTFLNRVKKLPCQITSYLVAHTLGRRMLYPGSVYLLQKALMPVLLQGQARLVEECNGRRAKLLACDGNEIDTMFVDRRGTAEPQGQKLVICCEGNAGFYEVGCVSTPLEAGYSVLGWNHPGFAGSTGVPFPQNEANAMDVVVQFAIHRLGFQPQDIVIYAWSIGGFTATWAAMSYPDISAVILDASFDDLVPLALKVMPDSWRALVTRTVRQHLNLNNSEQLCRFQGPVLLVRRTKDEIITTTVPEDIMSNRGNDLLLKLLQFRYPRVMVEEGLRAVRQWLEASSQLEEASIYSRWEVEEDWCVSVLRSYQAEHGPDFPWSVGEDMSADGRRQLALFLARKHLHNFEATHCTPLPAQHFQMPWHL

- Lipase activity, ABHD16A, Mean (ABHD16A (mouse)): 12.5 nmol/mg/min
- Lipase activity, Mock, Mean [1]: 3.8 nmol/mg/min
Substance: PG 16:0/18:1
